Measured values as given in patent publication US6500610B1, “Methods for identifying compounds for inhibiting of neoplastic lesions, and pharmaceutical compositions containing such compounds” (Cell Pathways, INC, priority 1997, dated 2002).
Where two headings read alike, the source gives them in different places.

Tests used:
[1] = target: T1, cyclooxygenase (Type 1), COX-I (Ovis aries, UniProt P05979); assay: COX inhibition assay, purified cyclooxygenase
T1 sequence (P05979 25-600): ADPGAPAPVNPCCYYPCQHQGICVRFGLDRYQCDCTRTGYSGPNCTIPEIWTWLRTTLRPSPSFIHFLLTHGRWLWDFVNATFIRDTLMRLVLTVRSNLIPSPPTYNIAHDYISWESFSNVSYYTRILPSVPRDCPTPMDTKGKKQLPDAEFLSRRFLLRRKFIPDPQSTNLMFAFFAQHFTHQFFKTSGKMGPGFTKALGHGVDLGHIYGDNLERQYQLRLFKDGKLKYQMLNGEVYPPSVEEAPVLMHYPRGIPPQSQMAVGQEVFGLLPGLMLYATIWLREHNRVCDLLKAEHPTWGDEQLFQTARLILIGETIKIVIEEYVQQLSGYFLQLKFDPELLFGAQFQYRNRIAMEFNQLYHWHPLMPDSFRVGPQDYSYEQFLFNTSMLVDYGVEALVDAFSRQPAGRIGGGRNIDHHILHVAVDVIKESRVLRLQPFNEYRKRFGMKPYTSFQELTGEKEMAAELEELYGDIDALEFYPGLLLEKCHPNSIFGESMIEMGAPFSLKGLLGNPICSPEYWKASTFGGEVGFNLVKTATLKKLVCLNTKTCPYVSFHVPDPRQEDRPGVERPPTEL

[2] = tested on: SW-480 colon adenocarcinoma cells
HT-29 cells = assay: Growth inhibition, SRB assay, HT-29; assay type: cell-based, human
[3] = tested on: cGMP PDE from human colon HT-29 cultured tumor cells; assay: cGMP PDE inhibition assay; assay type: biochemical
[4] = tested on: SW-480 colon adenocarcinoma cells; assay: Apoptosis fold induction / DNA fragmentation protocol
[5] = tested on: novel Peak B from HTB-26 breast cancer cell line; assay: cGMP PDE activity of peak B from HTB-26; assay type: biochemical; conditions: peak B from HTB-26, 0.25 μM cGMP
Method: (§1) The novel Peak B was also isolated from two other neoplastic cell lines, a breast cancer cell line, HTB-26 and a prostate cancer cell line, LnCAP by a procedure similar to the one above used to isolate it from SW480. The protocol was modified in several respects. To provide even greater reproducibility to allow comparison of different cell lines, a Pharmacia AKTA FPLC was used to control sample loading and elution on an 18 mL DEAE TrisAcryl M column. SW840 was run by this same procedure multiple times to provide a reference of peak B. 200-400 million cells of SW480 were used for the profiles. 70 million cells of LnCAP were used for a profile (see FIGS. 22 and 23), and in a separate experiment 32 million cells of HTB-26 were used for a profile (see FIGS. 20 and 21). After re-suspending cells in homogenization buffer, samples were manually homogenized. FPLC buffer A was 8 mM TRIS-acetate, 5 mM Mg acetate, 0.1 mM EDTA, pH 7.5 and buffer B was 8 mM TRIS-acetate, 5 mM Mg acetate, 0.1 mM EDTA, 1 M Na acetate, pH 7.5. Supernatants were loaded onto the column at 1 mL per minute, followed by a wash with 60 mL buffer A at 1 mL per minute. A gradient was run from 0-15% buffer B in 60 mL, 15-50% buffer B in 60 mL, and 50-100% buffer B in 16 mL. During the gradient 1.5 mL fractions were collected.

[6] = target: T2, cGMP binding sites of the GST-cGB-PDE5 Protein (Homo sapiens, UniProt O76074); assay: cGMP binding assay with GST-cGB-PDE5 fusion protein; conditions: 3H-cGMP 2 μM
T2 construct: made in house; host or cells: E. coli BL21 (DE3)

[7] = target: T3, novel cGMP-specific PDE (Peak B) from SW480 cells (Homo sapiens, UniProt O00408); assay: cGMP hydrolysis inhibition, novel PDE peak B (Section IA) from SW480; assay type: biochemical; conditions: peak B from SW480, FPLC, 0.25 μM cGMP
T3 construct: IC50 Peak B (μM)

[8] = tested on: novel Peak B from LnCAP prostate cancer cell line; assay: cGMP PDE activity of peak B from LnCAP; assay type: biochemical; conditions: 0.25 μM cGMP
Method: as §1

[9] = tested on: premalignant lesions in mouse mammary gland organ culture; assay: Mammary gland organ culture model; assay type: cell-based
Description: Test compounds identified by the above methods can be tested for antineoplastic activity by their ability to inhibit the incidence of pre-neoplastic lesions in a mammary gland organ culture system. This mouse mammary gland organ culture technique has been successfully used by other investigators to study the effects of known antineoplastic agents such as certain NSAIDs, retinoids, tamoxifen, selenium, and certain natural products, and is useful for validation of the screening method of the present invention.
For example, female BALB/c mice can be treated with a combination of estradiol and progesterone daily, in order to prime the glands to be responsive to hormones in vitro. The animals are sacrificed, and thoracic mammary glands are excised aseptically and incubated for ten days in growth media supplemented with insulin, prolactin, hydrocortisone, and aldosterone. DMBA (7,12 dimethylbenz(a)anthracene) is added to medium to induce the formation of premalignant lesions. Fully developed glands are then deprived of prolactin, hydrocortisone, and aldosterone, resulting in the regression of the glands but not the pre-malignant lesions.
The test compound is dissolved in DMSO and added to the culture media for the duration of the culture period. At the end of the culture period, the glands are fixed in 10% formalin, stained with alum carmine, and mounted on glass slides. The incidence of forming mammary lesions is the ratio of the glands with mammary lesions to […]. The incidence of mammary lesions in test compound treated glands is compared with that of the untreated glands.
The extent of the area occupied by the mammary lesions can be quantitated by projecting an image of the gland onto a digitation pad. The area covered by the gland is traced on the pad and considered as 100% of the area. The space covered by each of the non-regressed structures is also outlined on the digitization pad and quantitated by the computer.
Mammary gland organ culture experiment were performed as previously described (Mehta and Moon, Cancer Research, 46:5832-5835, 1986). […]

β-catenin in SW480 cells = assay: Western blot of β-catenin in SW480 cells; assay type: cell-based, human; conditions: SW480, 200, 400 or 600 μM, 48 hours
Method: SW480 cells treated with exisulind as described previously are harvested from the microfuge tubes by rinsing once with ice-cold PBS. The cells are lysed by modified RIPA buffer for 15 minutes with agitation. The cell lysate is spun down in a cold room. The supernatants are transferred to fresh microcentrifuge tubes immediately after spinning. BioRad DC Protein Assay (Temecula, Calif.) is performed to determine the protein concentrations in samples. The samples are normalized for protein concentration, as described above.
50 μg of each sample is loaded to 10% SDS gel. SDS-PAGE is performed, and the proteins then are transferred to a nitrocellulose membrane. The blotted nitrocellulose membrane are blocked in freshly prepared TBST containing 5% nonfat dry milk for one hour at room temperature with constant agitation.
SW480 cells were treated with exisulind or vehicle (0.1% DMSO) for 48 hours. 50 μg supernatant of each cell lysates were loaded to 10% SDS-gel and blotted to nitrocellulose membrane, and the membrane was probed with rabbit-anti-β-catenin and rabbit anti-PKG antibodies.
This observation was made by culturing SW480 cells with either 200, 400 or 600 μM exisulind or vehicle (0.1% DMSO). The cells are harvested 48 hours post treatment and processed for immunoblotting. Immuno-reactive protein can be detected by Western blot. […]

[10] = tested on: protein kinase G (PKG) activity in HCT116 colon cancer cells; assay: PKG activity assay of lysates of drug-treated HCT116 cells; assay type: cell-based
Description: To test the effect of cGMP-specific PDE inhibition on neoplasia containing the β-catenin mutation, HCT116 colon cancer cells were employed. HCT116 is known to contain the β-catenin mutation, but is known not to contain the APC mutation.
The same procedure is used to grow the HCT116 cells as is used in the SW480 procedure described above. In this experiment, only exisulind and controls were used.

patients = assay: Safety evaluation in exisulind clinical trials; assay type: in vivo
Method: In these exisulind trials and several others involving the drug in other indications, safety was evaluated by monitoring adverse events (AEs), clinical laboratory tests (hematology, serum chemistry, and urinalysis), vital signs (blood pressure, pulse rate, respiratory rate, temperature, and weight), physical examination, and upper endoscopy.

## CCN(CC)CCSC12CC(=O)OC1(C)/C(=C/c1ccc(S(C)(=O)=O)cc1)c1ccc(F)cc12 (racemic) [A, rac-threo-(E)-1-(N,N′-diethylaminoethanethio)-1-(butan-1′,4′-olido)-[3′,4′:1,2]-6-fluoro-2-methyl-3-(p-methylsulfonylbenzylidene)-indan]
[1]; 100 μM
  COX % Inhibition at 100 μM: <25%
[2]
  Fold induction at 100 μM (apoptosis): <2.0 fold
HT-29 cells
  Growth % Inhibition at 100 μM: 68%
[3]
  cGMP PDE % Inhibition at 10 μM: <25%

## CCCCCC[C@@H]([C@@H](C)O)n1cnc2c(N)ncnc21 (racemic) [EHNA]
[4]
  Fold induction at 100 μM (apoptosis): <2.0 fold

## O=C([O-])C1CCN(c2nc(NCc3ccc4c(c3)OCO4)c3cc(Cl)ccc3n2)CC1.[Na+] [Compound E4021]
[5]
  sensitivity of peak B cGMP PDE activity: resistant to 100 nM E4021
[6]
  competition with cGMP in binding of GST-cGB-PDE5: None of the PDE5 inhibitors showed any competition with cGMP
HT-29 cells
  Growth % Inhibition at 100 μM: <50%
[7]
  sensitivity of peak B cGMP PDE activity: resistant to 100 nM E4021
[8]
  sensitivity of peak B cGMP PDE activity: resistant to 100 nM E4021

## CC1=C(CC(=O)O)c2cc(F)ccc2/C1=C\c1ccc(S(C)(=O)=O)cc1 [Exisulind, 5-fluoro-2-methyl-1-(p-methylsulfonylbenzylidene)-3-indenylacetic acid]
[6]
  competition with cGMP in binding of GST-cGB-PDE5: None of the PDE5 inhibitors showed any competition with cGMP
[1]
  IC50: > 10 mM
[9]
  inhibition of formation of premalignant lesions: effectively inhibit the formation of premalignant lesions
β-catenin in SW480 cells
  reduction of expression of β-catenin: 50%
[10]
  PKG activity relative to control: PKG activation occurred
patients; human, in vivo
  dose-limiting adverse events: elevations in liver function tests (LFTs)
  safety issues in clinical trials: No outstanding safety issues have been demonstrated
patients; polyp and normal colonic tissues in APC patients
  apoptosis rates in paired biopsies: increased apoptosis rates in polyp, but not normal colonic tissues
[3]
  cGMP PDE % Inhibition at 10 μM: 39%
